In ChEMBL document CHEMBL4229426, “Synthesis, antitumor activity evaluation and mechanistic study of novel hederacolchiside A1 derivatives bearing an aryl triazole moiety” (Bioorg Med Chem, 2018):
Active and inactive are the calls of the source. No cut-off for these calls is given here.

Experiments:
PC-3 = assay: Antiproliferative activity against human PC3 cells after 48 hrs by MTT assay; assay type: functional, cell-based; conditions: PC-3, 48 h
HT-29 = assay: Antiproliferative activity against human HT-29 cells after 48 hrs by MTT assay; assay type: functional, cell-based; conditions: HT-29, 48 h
HepG2 [1] = assay: Antiproliferative activity against human HepG2 cells after 48 hrs by MTT assay; assay type: functional, cell-based; conditions: HepG2, 48 h
A549 = assay: Antiproliferative activity against human A549 cells after 48 hrs by MTT assay; assay type: functional, cell-based; conditions: A549, 48 h
HL-60 = assay: Antiproliferative activity against human HL60 cells after 48 hrs by MTT assay; assay type: functional, cell-based; conditions: HL-60, 48 h
U-937 = assay: Antiproliferative activity against human U937 cells after 48 hrs by MTT assay; assay type: functional, cell-based; conditions: U-937, 48 h
HepG2 [2] = assay: Induction of apoptosis in human HepG2 cells assessed as necrotic cells at 0.5 uM after 48 hrs by Annexin V-FITC/propidium iodide staining based flow cytometry (reference value: 0.06%); assay type: functional
HepG2 [3] = assay: Induction of apoptosis in human HepG2 cells assessed as late apoptotic cells at 0.5 uM after 48 hrs by Annexin V-FITC/propidium iodide staining based flow cytometry (reference value: 0.02%); assay type: functional
HepG2 [4] = assay: Induction of apoptosis in human HepG2 cells assessed as live cells at 0.5 uM after 48 hrs by Annexin V-FITC/propidium iodide staining based flow cytometry (reference value: 95.5%); assay type: functional
HepG2 [5] = assay: Induction of apoptosis in human HepG2 cells assessed as early apoptotic cells at 0.5 uM after 48 hrs by Annexin V-FITC/propidium iodide staining based flow cytometry (reference value: 4.42%); assay type: functional
HepG2 [6] = assay: Induction of apoptosis in human HepG2 cells assessed as necrotic cells at 1 uM after 48 hrs by Annexin V-FITC/propidium iodide staining based flow cytometry (reference value: 0.06%); assay type: functional
HepG2 [7] = assay: Induction of apoptosis in human HepG2 cells assessed as late apoptotic cells at 1 uM after 48 hrs by Annexin V-FITC/propidium iodide staining based flow cytometry (reference value: 0.02%); assay type: functional
HepG2 [8] = assay: Induction of apoptosis in human HepG2 cells assessed as live cells at 1 uM after 48 hrs by Annexin V-FITC/propidium iodide staining based flow cytometry (reference value: 95.5%); assay type: functional
HepG2 [9] = assay: Induction of apoptosis in human HepG2 cells assessed as early apoptotic cells at 1 uM after 48 hrs by Annexin V-FITC/propidium iodide staining based flow cytometry (reference value: 4.42%); assay type: functional
HepG2 [10] = assay: Induction of apoptosis in human HepG2 cells assessed as necrotic cells at 2 uM after 48 hrs by Annexin V-FITC/propidium iodide staining based flow cytometry (reference value: 0.06%); assay type: functional
HepG2 [11] = assay: Induction of apoptosis in human HepG2 cells assessed as late apoptotic cells at 2 uM after 48 hrs by Annexin V-FITC/propidium iodide staining based flow cytometry (reference value: 0.02%); assay type: functional
HepG2 [12] = assay: Induction of apoptosis in human HepG2 cells assessed as live cells at 2 uM after 48 hrs by Annexin V-FITC/propidium iodide staining based flow cytometry (reference value: 95.5%); assay type: functional
HepG2 [13] = assay: Induction of apoptosis in human HepG2 cells assessed as early apoptotic cells at 2 uM after 48 hrs by Annexin V-FITC/propidium iodide staining based flow cytometry (reference value: 4.42%); assay type: functional
HepG2 [14] = assay: Cell cycle arrest in human HepG2 cells after 48 hrs by propidium iodide staining based flow cytometry; assay type: functional
HepG2 [15] = assay: Cell cycle arrest in human HepG2 cells assessed as accumulation at G1-phase at 0.5 uM after 48 hrs by propidium iodide staining based flow cytometry (reference value: 40.6%); assay type: functional
HepG2 [16] = assay: Cell cycle arrest in human HepG2 cells assessed as accumulation at G2-phase at 0.5 uM after 48 hrs by propidium iodide staining based flow cytometry (reference value: 32.61%); assay type: functional
HepG2 [17] = assay: Cell cycle arrest in human HepG2 cells assessed as accumulation at S-phase at 0.5 uM after 48 hrs by propidium iodide staining based flow cytometry (reference value: 26.79%); assay type: functional
HepG2 [18] = assay: Cell cycle arrest in human HepG2 cells assessed as accumulation at G1-phase at 1 uM after 48 hrs by propidium iodide staining based flow cytometry (reference value: 40.6%); assay type: functional
HepG2 [19] = assay: Cell cycle arrest in human HepG2 cells assessed as accumulation at G2-phase at 1 uM after 48 hrs by propidium iodide staining based flow cytometry (reference value: 32.61%); assay type: functional
HepG2 [20] = assay: Cell cycle arrest in human HepG2 cells assessed as accumulation at S-phase at 1 uM after 48 hrs by propidium iodide staining based flow cytometry (reference value: 26.79%); assay type: functional
HepG2 [21] = assay: Cell cycle arrest in human HepG2 cells assessed as accumulation at G1-phase at 2 uM after 48 hrs by propidium iodide staining based flow cytometry (reference value: 40.6%); assay type: functional
HepG2 [22] = assay: Cell cycle arrest in human HepG2 cells assessed as accumulation at G2-phase at 2 uM after 48 hrs by propidium iodide staining based flow cytometry (reference value: 32.61%); assay type: functional
HepG2 [23] = assay: Cell cycle arrest in human HepG2 cells assessed as accumulation at S-phase at 2 uM after 48 hrs by propidium iodide staining based flow cytometry (reference value: 26.79%); assay type: functional
HepG2 [24] = assay: Induction of mitochondrial membrane depolarization in human HepG2 cells at 0.5 uM after 48 hrs by JC-1 staining based flow cytometry (reference value: 1.3%); assay type: functional
HepG2 [25] = assay: Induction of mitochondrial membrane depolarization in human HepG2 cells at 1 uM after 48 hrs by JC-1 staining based flow cytometry (reference value: 1.3%); assay type: functional
HepG2 [26] = assay: Induction of mitochondrial membrane depolarization in human HepG2 cells at 2 uM after 48 hrs by JC-1 staining based flow cytometry (reference value: 1.3%); assay type: functional
HepG2 [27] = assay: Induction of mitochondrial membrane depolarization in human HepG2 cells after 48 hrs by JC-1 staining based flow cytometry; assay type: functional, cell-based
HepG2 [28] = assay: Upregulation of cytochrome-c protein expression in human HepG2 cells assessed as ratio of cytochrome-c to GAPDH expression level at 0.5 to 2 uM after 48 hrs by Western blot analysis (reference value: 0.05); assay type: functional
HepG2 [29] = assay: Upregulation of cytochrome-c protein expression in human HepG2 cells after 48 hrs by Western blot analysis; assay type: functional, cell-based
HepG2 [30] = assay: Downregulation of Bcl2 protein expression in human HepG2 cells assessed as ratio of Bcl2 to GAPDH expression level at 0.5 uM after 48 hrs by Western blot analysis (reference value: 0.97); assay type: functional
HepG2 [31] = assay: Downregulation of Bcl2 protein expression in human HepG2 cells assessed as ratio of Bcl2 to GAPDH expression level at 1 uM after 48 hrs by Western blot analysis (reference value: 0.97); assay type: functional
HepG2 [32] = assay: Downregulation of Bcl2 protein expression in human HepG2 cells assessed as ratio of Bcl2 to GAPDH expression level at 2 uM after 48 hrs by Western blot analysis (reference value: 0.97); assay type: functional
HepG2 [33] = assay: Upregulation of caspase-3 protein expression in human HepG2 cells assessed as ratio of caspase-3 to GAPDH expression level at 2 uM after 48 hrs by Western blot analysis (reference value: 0.25); assay type: functional
HepG2 [34] = assay: Upregulation of caspase-9 protein expression in human HepG2 cells assessed as ratio of caspase-9 to GAPDH expression level at 1 uM after 48 hrs by Western blot analysis (reference value: 0.17); assay type: functional
HepG2 [35] = assay: Upregulation of caspase-9 protein expression in human HepG2 cells at 2 uM after 48 hrs by Western blot analysis; assay type: functional, cell-based

## Cc1ccc(-n2cc(CNC(=O)[C@]34CCC(C)(C)C[C@H]3C3=CC[C@@H]5[C@@]6(C)CC[C@H](O[C@@H]7OC[C@H](O[C@@H]8O[C@H](CO)[C@@H](O)[C@H](O)[C@H]8O)[C@H](O)[C@H]7O[C@@H]7O[C@@H](C)[C@H](O)[C@@H](O)[C@H]7O)C(C)(C)[C@@H]6CC[C@@]5(C)[C@]3(C)CC4)nn2)cc1
PC-3
  IC50: 540 nM
HT-29
  IC50: 930 nM
HepG2 [1]
  IC50: 540 nM
A549
  IC50: 2660 nM
HL-60
  IC50: 810 nM
U-937
  IC50: 730 nM
HepG2 [2]
  Activity: 0.3%
HepG2 [3]
  Activity: 6.89%
HepG2 [4]
  Activity: 74.94%
HepG2 [5]
  Activity: 17.87%
HepG2 [6]
  Activity: 0.56%
HepG2 [7]
  Activity: 21.58%
HepG2 [8]
  Activity: 53.1%
HepG2 [9]
  Activity: 24.76%
HepG2 [10]
  Activity: 1.51%
HepG2 [11]
  Activity: 35.77%
HepG2 [12]
  Activity: 41.56%
HepG2 [13]
  Activity: 21.07%
HepG2 [14]
  Activity: Dose-dependent effect
HepG2 [15]
  Activity: 48.7%
HepG2 [16]
  Activity: 18.01%
HepG2 [17]
  Activity: 33.29%
HepG2 [18]
  Activity: 48.4%
HepG2 [19]
  Activity: 15.68%
HepG2 [20]
  Activity: 35.92%
HepG2 [21]
  Activity: 49.35%
HepG2 [22]
  Activity: 11.33%
HepG2 [23]
  Activity: 39.32%
HepG2 [24]
  Activity: 15.98%
HepG2 [25]
  Activity: 33.51%
HepG2 [26]
  Activity: 54.12%
HepG2 [27]
  Activity: Dose-dependent effect
HepG2 [28]
  Ratio: 0.4
HepG2 [29]
  Activity: Dose-dependent effect
HepG2 [30]
  Ratio: 0.64
HepG2 [31]
  Ratio: 0.47
HepG2 [32]
  Ratio: 0.19
HepG2 [33]
  Ratio: 0.63
HepG2 [34]
  Ratio: 0.45
HepG2 [35]
  Activity: Active
